Patent publication EP3753932A1, “SUBSTITUTED BICYCLIC DERIVATIVES HAVING MULTIMODAL ACTIVITY AGAINST PAIN” (priority 2019, dated 2020)
Where two headings read alike, the source gives them in different places.

Experiments:
[1] = biological target: T1, Human µ-opioid receptor (Homo sapiens, UniProt P35372); assay: Human µ-opioid receptor radioligand assay ([3H]-DAMGO); assay type: binding
T1 construct: expressed in transfected cells; host or cells: CHO-K1
Description: Human µ-opioid receptor radioligand assay
Transfected CHO-K1 cell membranes (20 µg) were incubated with [^3H]-DAMGO (1 nM) in assay buffer containing Tris-HCl 50 mM, MgCl2 5 mM at pH 7.4. NBS (non-specific binding) was measured by adding 10 µM Naloxone. The binding of the test compound was measured at either one concentration (% inhibition at 1 or 10 µM) or five different concentrations to determine affinity values (Ki). Plates were incubated at 27 °C for 60 min. After the incubation period, the reaction mixture was then transferred to MultiScreen HTS, FC plates (Millipore), filtered and plates were washed 3 times with ice-cold 10 mM Tris-HCl (pH 7.4). Filters were dried and counted at approximately 40% efficiency in a MicroBeta scintillation counter (Perkin-Elmer) using EcoScint liquid scintillation cocktail.

[2] = biological target: Human α2δ-1 subunit of Cav2.2 calcium channel (Homo sapiens, UniProt P54289); assay: Human α2δ-1 subunit of Cav2.2 calcium channel assay ([3H]-Gabapentin binding)
Chain of Human α2δ-1 subunit of Cav2.2 calcium channel (P54289 25-1103): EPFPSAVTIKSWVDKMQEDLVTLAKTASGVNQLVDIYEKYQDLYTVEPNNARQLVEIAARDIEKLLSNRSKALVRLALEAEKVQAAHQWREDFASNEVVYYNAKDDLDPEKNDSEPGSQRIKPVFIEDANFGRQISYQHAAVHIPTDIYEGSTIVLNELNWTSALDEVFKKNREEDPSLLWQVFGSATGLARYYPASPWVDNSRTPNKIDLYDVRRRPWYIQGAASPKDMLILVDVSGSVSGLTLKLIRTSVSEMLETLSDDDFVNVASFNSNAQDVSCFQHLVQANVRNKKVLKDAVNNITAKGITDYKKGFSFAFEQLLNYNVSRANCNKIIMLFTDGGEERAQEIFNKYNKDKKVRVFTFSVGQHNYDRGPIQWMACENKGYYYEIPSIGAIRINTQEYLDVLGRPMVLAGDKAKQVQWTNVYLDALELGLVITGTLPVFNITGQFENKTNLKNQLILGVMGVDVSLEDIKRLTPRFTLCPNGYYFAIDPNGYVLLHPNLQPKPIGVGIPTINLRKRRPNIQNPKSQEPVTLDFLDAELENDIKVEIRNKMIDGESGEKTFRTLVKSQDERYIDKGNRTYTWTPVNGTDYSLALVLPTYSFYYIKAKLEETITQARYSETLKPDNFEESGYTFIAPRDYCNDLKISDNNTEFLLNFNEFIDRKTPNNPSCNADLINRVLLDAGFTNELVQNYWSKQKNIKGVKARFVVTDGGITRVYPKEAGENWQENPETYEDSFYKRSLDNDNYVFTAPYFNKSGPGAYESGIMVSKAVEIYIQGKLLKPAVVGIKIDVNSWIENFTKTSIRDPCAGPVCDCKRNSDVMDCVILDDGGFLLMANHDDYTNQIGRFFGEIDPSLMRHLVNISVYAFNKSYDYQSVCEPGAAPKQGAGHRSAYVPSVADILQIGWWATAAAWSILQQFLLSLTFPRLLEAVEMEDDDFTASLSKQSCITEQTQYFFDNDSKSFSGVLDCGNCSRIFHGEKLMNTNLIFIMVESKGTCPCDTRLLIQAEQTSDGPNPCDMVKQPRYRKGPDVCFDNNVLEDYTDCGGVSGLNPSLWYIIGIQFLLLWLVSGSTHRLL
Description: Human α2δ-1 subunit of Cav2.2 calcium channel assay
Human α2δ-1 enriched membranes (2.5 µg) were incubated with 15 nM of radiolabeled [3H]-Gabapentin in assay buffer containing Hepes-KOH 10mM, pH 7.4. NSB (non specific binding) was measured by adding 10 µM pregabalin. The binding of the test compound was measured at either one concentration (% inhibition at 1 or 10 µM) or five different concentrations to determine affinity values (Ki). After 60 min incubation at 27 °C, binding reaction was terminated by filtering through Multiscreen GF/C (Millipore) presoaked in 0.5 % polyethyleneimine in Vacuum Manifold Station, followed by 3 washes with ice-cold filtration buffer containing 50 mM Tris-HCl, pH 7.4. Filter plates were dried at 60 °C for 1 hour and 30 µl of scintillation cocktail were added to each well before radioactivity reading. Readings were performed in a Trilux 1450 Microbeta radioactive counter (Perkin Elmer).

[3] = transfected CHO-K1 cell membranes, [3H]-DAMGO 1 nM, read-out: µ-binding
[4] = human α2δ-1 enriched membranes, [3H]-Gabapentin 15 nM, read-out: α2δ-1 binding

T1 sequence (P35372 whole entry): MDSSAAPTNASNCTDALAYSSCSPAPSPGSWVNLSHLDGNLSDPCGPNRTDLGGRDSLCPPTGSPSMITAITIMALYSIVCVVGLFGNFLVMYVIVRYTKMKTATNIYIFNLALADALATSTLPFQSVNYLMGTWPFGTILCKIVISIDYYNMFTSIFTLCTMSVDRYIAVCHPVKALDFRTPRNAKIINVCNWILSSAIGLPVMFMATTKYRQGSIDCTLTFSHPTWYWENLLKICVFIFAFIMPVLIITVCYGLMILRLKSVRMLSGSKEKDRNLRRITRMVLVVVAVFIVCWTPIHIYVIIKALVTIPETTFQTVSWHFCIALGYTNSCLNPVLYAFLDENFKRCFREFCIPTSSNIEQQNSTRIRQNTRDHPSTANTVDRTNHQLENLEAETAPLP

Structure (SMILES) | Ki [1, 3] [nM] | Ki [2] [nM] | Ki [1] [nM] | Ki [2, 4] [nM]
CCCC(c1ncc2cc(N3CCC(c4cccc(O)c4)(N(C)C)CC3)ccc2n1)N1C[C@@H](C)N[C@@H](C)C1 (stereo partly drawn) [Example 25, 3-(4-(Dimethylamino)-1-(2-(1-((3S,5R)-3,5-dimethylpiperazin-1-yl)butyl)quinazolin-6-yl)piperidin-4-yl)phenol] | < 100 | > 5000 | – | –
CCC[C@H](c1ncc2cc(N3CCC(c4cccc(O)c4)(N(C)C)CC3)ccc2n1)N1C[C@@H](C)N[C@@H](C)C1 [Example 26, 3-(4-(Dimethylamino)-1-(2-((R)-1-((3S,5R)-3,5-dimethylpiperazin-1-yl)butyl)quinazolin-6-yl)piperidin-4-yl)phenol] | < 100 | > 5000 | – | –
CCC[C@@H](c1ncc2cc(N3CCC(c4cccc(O)c4)(N(C)C)CC3)ccc2n1)N1C[C@@H](C)N[C@@H](C)C1 [Example 27, 3-(4-(Dimethylamino)-1-(2-((S)-1-((3S,5R)-3,5-dimethylpiperazin-1-yl)butyl)quinazolin-6-yl)piperidin-4-yl)phenol] | < 100 | > 5000 | – | –
CCCC(c1ncc2cc(CN3CCC(c4cccc(O)c4)(N(C)C)CC3)ccc2n1)N1C[C@@H](C)N[C@@H](C)C1 (stereo partly drawn) [Example 28, 3-(4-(Dimethylamino)-1-((2-(1-((3S,5R)-3,5-dimethylpiperazin-1-yl)butyl)quinazolin-6-yl)methyl)piperidin-4-yl)phenol] | – | – | < 100 | > 5000
CCC[C@H](c1ncc2cc(CN3CCC(c4cccc(O)c4)(N(C)C)CC3)ccc2n1)N1C[C@@H](C)N[C@@H](C)C1 [Example 29, 3-(4-(Dimethylamino)-1-((2-((R)-1-((3S,5R)-3,5-dimethylpiperazin-1-yl)butyl)quinazolin-6-yl)methyl)piperidin-4-yl)phenol] | – | – | < 100 | 500 to 5000
CCC[C@@H](c1ncc2cc(CN3CCC(c4cccc(O)c4)(N(C)C)CC3)ccc2n1)N1C[C@@H](C)N[C@@H](C)C1 [Example 30, 3-(4-(Dimethylamino)-1-((2-((S)-1-((3S,5R)-3,5-dimethylpiperazin-1-yl)butyl)quinazolin-6-yl)methyl)piperidin-4-yl)phenol] | – | – | < 100 | > 5000
CCCC(c1cc(OC)c2cc(N3CCC(c4ccccc4)(N(C)C)CC3)ccc2n1)N1C[C@@H](C)N[C@@H](C)C1 (stereo partly drawn) [Example 31, 1-(2-(1-((3S,5R)-3,5-Dimethylpiperazin-1-yl)butyl)-4-methoxyquinolin-6-yl)-N,N-dimethyl-4-phenylpiperidin-4-amine] | 100 to 500 | < 500 | – | –
CCCC(c1cnc2cc(N3CCC(c4cccc(O)c4)(N(C)C)CC3)ccc2n1)N1C[C@@H](C)N[C@@H](C)C1 (stereo partly drawn) [Example 32, 3-(4-(Dimethylamino)-1-(2-(1-((3S,5R)-3,5-dimethylpiperazin-1-yl)butyl)quinoxalin-6-yl)piperidin-4-yl)phenol] | – | – | < 100 | 500 to 5000
CCCC(c1cnc2ccc(N3CCC(c4cccc(O)c4)(N(C)C)CC3)cc2n1)N1C[C@@H](C)N[C@@H](C)C1 (stereo partly drawn) [Example 33, 3-(4-(Dimethylamino)-1-(3-(1-((3S,5R)-3,5-dimethylpiperazin-1-yl)butyl)quinoxalin-6-yl)piperidin-4-yl)phenol] | < 100 | < 500 | – | –
CCC[C@H](c1cnc2ccc(N3CCC(c4cccc(O)c4)(N(C)C)CC3)cc2n1)N1C[C@@H](C)N[C@@H](C)C1 [Example 34, 3-(4-(Dimethylamino)-1-(3-((R)-1-((3S,5R)-3,5-dimethylpiperazin-1-yl)butyl)quinoxalin-6-yl)piperidin-4-yl)phenol] | < 100 | < 500 | – | –
CCC[C@@H](c1cnc2ccc(N3CCC(c4cccc(O)c4)(N(C)C)CC3)cc2n1)N1C[C@@H](C)N[C@@H](C)C1 [Example 35, 3-(4-(Dimethylamino)-1-(3-((S)-1-((3S,5R)-3,5-dimethylpiperazin-1-yl)butyl)quinoxalin-6-yl)piperidin-4-yl)phenol] | – | – | 100 to 500 | 500 to 5000
CCCC(c1cnc2ccc(CN3CCC(c4cccc(O)c4)(N(C)C)CC3)cc2n1)N1C[C@@H](C)N[C@@H](C)C1 (stereo partly drawn) [Example 37, 3-(4-(Dimethylamino)-1-((3-(1-((3S,5R)-3,5-dimethylpiperazin-1-yl)butyl)quinoxalin-6-yl)methyl)piperidin-4-yl)phenol] | < 100 | < 500 | – | –
CCC[C@H](c1cnc2ccc(CN3CCC(c4cccc(O)c4)(N(C)C)CC3)cc2n1)N1C[C@@H](C)N[C@@H](C)C1 [Example 38, 3-(4-(Dimethylamino)-1-((3-((R)-1-((3S,5R)-3,5-dimethylpiperazin-1-yl)butyl)quinoxalin-6-yl)methyl)piperidin-4-yl)phenol] | < 100 | < 500 | – | –
CCC[C@@H](c1cnc2ccc(CN3CCC(c4cccc(O)c4)(N(C)C)CC3)cc2n1)N1C[C@@H](C)N[C@@H](C)C1 [Example 39, 3-(4-(Dimethylamino)-1-((3-((S)-1-((3S,5R)-3,5-dimethylpiperazin-1-yl)butyl)quinoxalin-6-yl)methyl)piperidin-4-yl)phenol] | – | – | < 100 | 500 to 5000
CCCC(c1nc2ccc(CN3CCC(c4cccc(O)c4)(N(C)C)CC3)cc2nc1CC)N1C[C@@H](C)N[C@@H](C)C1 (stereo partly drawn) [Example 40, 3-(4-(Dimethylamino)-1-((2-(1-((3S,5R)-3,5-dimethylpiperazin-1-yl)butyl)-3-ethylquinoxalin-6-yl)methyl)piperidin-4-yl)phenol] | < 100 | < 500 | – | –
CCC[C@H](c1nc2ccc(CN3CCC(c4cccc(O)c4)(N(C)C)CC3)cc2nc1CC)N1C[C@@H](C)N[C@@H](C)C1 [Example 41, 3-(4-(Dimethylamino)-1-((2-((R)-1-((3S,5R)-3,5-dimethylpiperazin-1-yl)butyl)-3-ethylquinoxalin-6-yl)methyl)piperidin-4-yl)phenol] | < 100 | < 500 | – | –
CCC[C@@H](c1nc2ccc(CN3CCC(c4cccc(O)c4)(N(C)C)CC3)cc2nc1CC)N1C[C@@H](C)N[C@@H](C)C1 [Example 42, 3-(4-(Dimethylamino)-1-((2-((S)-1-((3S,5R)-3,5-dimethylpiperazin-1-yl)butyl)-3-ethylquinoxalin-6-yl)methyl)piperidin-4-yl)phenol] | – | – | < 100 | 500 to 5000
